Data as given in patent US8703811B2, “Small molecule inhibitors of Plasmodium falciparum dihydroorotate dehydrogenase” (Genzyme Corporation, priority 2008, dated 2014).
Read-outs that look alike come from different tables or passages of the source.

Columns and labels:
pfDHODH = pfDHODH (Plasmodium falciparum (isolate 3D7), UniProt Q08210); assay: DHODH chromogen reduction (DCIP) assay, pfDHODH; format: biochemical, P. falciparum
Source text: (§1) Type 2 DHODH activity was monitored with either the direct assay measuring the formation of orotate or via a chromogen reduction assay using DCIP. Although the extinction coefficient and absorption wavelength are preferable for the chromogen reduction assay, the inorganic electron acceptor DCIP can be utilized by DHODH as the final electron acceptor in lieu of CoQn when the endogenous substrate is at a low concentration. As such, the direct assay was used to measure the binding affinity of pfDHODH to CoQD and L-DHO. The enzymatic reaction was performed by varying the L-DHO concentration (1-400 μM) or CoQD concentration (1-200 μM) while keeping the other substrate constant and in excess.
(§2) Substrate specificity and enzyme inhibition data was analyzed with GraphPad Prism Version 4 for Windows (GraphPad Software). Kinetic constants were calculated by non-linear regression fitting of the data to the Michaelis-Menten equation [36]. IC50 values were determined by non-linear regression fitting of the data to Equation 1: […]

hsDHODH = hsDHODH (Homo sapiens (Human), UniProt Q02127); assay: DCIP assay, hsDHODH; format: biochemical; settings: Table 2b; read-out: Hu (human DHODH) IC50
Source text: as §1, with “excess. The formation of orotate was measured continuously at 296 nm (ε296=4.3 mM^−1 cm^−1). Inhibition of DHODH by small molecules was evaluated using the chromogen based assay with a final substrate concentration of 200 μM L-DHO, 18 μM CoQD, and 100 μM DCIP, unless otherwise noted. The reduction of DCIP was monitored at 600 nm (ε600=18.8 mM^−1 cm^−1).” for “excess.”
as §2

P. falciparum Dd2 = assay: Inhibition of in vitro P. falciparum culture, [3H]-hypoxanthine uptake, Dd2; format: cell-based
Protocol: (§3) P. falciparum strains D10, 3D7, HB3, and Dd2 were obtained from the Malaria Research and Reference Reagent Resource Center (Manassas, Va.). The parasite strains were maintained in vitro by method of Trager and Jensen. The inhibition of P. falciparum growth in the presence of drug was assessed by the relative reduction of [^3H]-hypoxanthine uptake as previously described. Inhibition data were fitted to Equation 1 using non-linear regression analysis except that the relative velocity of parasite growth was substituted for the rate of product formation.

P. falciparum 3D7 = assay: Inhibition of in vitro P. falciparum culture, [3H]-hypoxanthine uptake, 3D7; format: cell-based
Protocol: as §3

[1] = Table 2b, read-out: pfDHODH IC50
[2] = Plasmodium falciparum, DD2, Table 2b, read-out: Dd2 EC50
[3] = Plasmodium falciparum, 3D7, Table 2b, read-out: 3D7 EC50

Chain of pfDHODH (Q08210 159-565 limits assumed): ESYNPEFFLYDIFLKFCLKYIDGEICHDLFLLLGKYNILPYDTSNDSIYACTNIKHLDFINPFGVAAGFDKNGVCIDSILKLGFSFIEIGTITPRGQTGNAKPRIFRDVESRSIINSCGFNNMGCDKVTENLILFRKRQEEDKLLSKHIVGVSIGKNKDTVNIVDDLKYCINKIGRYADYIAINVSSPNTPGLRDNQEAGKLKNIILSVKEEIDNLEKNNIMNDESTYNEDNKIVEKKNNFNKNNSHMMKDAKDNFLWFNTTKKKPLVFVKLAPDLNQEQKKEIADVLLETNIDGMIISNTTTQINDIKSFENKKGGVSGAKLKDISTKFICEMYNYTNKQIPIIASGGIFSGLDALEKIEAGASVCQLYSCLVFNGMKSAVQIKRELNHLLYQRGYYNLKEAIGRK
Chain of hsDHODH (Q02127 29-395 limits assumed): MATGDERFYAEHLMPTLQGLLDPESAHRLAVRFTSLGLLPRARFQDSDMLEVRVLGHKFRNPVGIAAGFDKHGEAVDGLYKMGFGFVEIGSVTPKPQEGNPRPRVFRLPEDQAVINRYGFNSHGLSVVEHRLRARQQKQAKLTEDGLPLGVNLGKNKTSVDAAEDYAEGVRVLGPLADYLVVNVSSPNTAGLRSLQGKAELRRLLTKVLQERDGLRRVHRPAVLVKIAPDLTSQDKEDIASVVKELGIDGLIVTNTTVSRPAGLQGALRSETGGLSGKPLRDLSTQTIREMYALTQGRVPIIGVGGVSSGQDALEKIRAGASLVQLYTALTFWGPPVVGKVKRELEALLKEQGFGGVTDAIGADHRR

| Compound | IC50 (pfDHODH; [1]) | IC50 (hsDHODH) | EC50 (P. falciparum Dd2; [2]) | EC50 (P. falciparum 3D7; [3]) | EC50 (P. falciparum Dd2; Table 2b, read-out: Dd2 EC50) | EC50 (P. falciparum 3D7; Table 2b, read-out: 3D7 EC50) | IC50 (pfDHODH; pfDHODH IC50, Table 2b) | EC50 (P. falciparum Dd2; Plasmodium falciparum, DD2, read-out: Dd2 EC50, Table 2b) | EC50 (P. falciparum 3D7; Plasmodium falciparum, 3D7, read-out: 3D7 EC50, Table 2b) |
| --- | --- | --- | --- | --- | --- | --- | --- | --- | --- |
| Cc1nc2cc3c(cc2n1-c1ccc(C(=O)NC2CC2)s1)OCO3 [Compound 90] | 116 nM | > 30000 nM | 174 nM | 220 nM | – | – | – | – | – |
| O=C(NCCO)c1ccc(-n2cnc3ccccc32)s1 [Compound 30] | 14000 nM | > 30000 nM | 6500 nM | 5900 nM | – | – | – | – | – |
| CCc1nc2cc(F)ccc2n1-c1ccc(C(=O)NC2CC2)s1 [Compound 66] | 67 nM | > 30000 nM | 253 nM | 136 nM | – | – | – | – | – |
| O=C(NC1CCCC1)c1ccc(-n2cnc3ccccc32)s1 [Compound 35] | 2510 nM | > 30000 nM | 5500 nM | 4400 nM | – | – | – | – | – |
| CCNC(=O)c1ccc(-n2cnc3cc(C)ccc32)s1 [Compound 61] | 75 nM | 21200 nM | 39 nM | 27 nM | – | – | – | – | – |
| O=C(NC1CC1)c1ccc(-n2cnc3cc(F)ccc32)s1 [Compound 70] | 58 nM | > 30000 nM | 105 nM | 62 nM | – | – | – | – | – |
| CCNC(=O)c1ccc(-n2cnc3cc(F)ccc32)s1 [Compound 68] | 105 nM | > 30000 nM | 132 nM | 90 nM | – | – | – | – | – |
| Cc1nc2cc(C(F)(F)F)ccc2n1-c1ccc(C(=O)NC2CC2)s1 [Compound 64] | 41 nM | 28000 nM | 12 nM | 8 nM | – | – | – | – | – |
| CCCc1nc2ccccc2n1-c1ccc(C(=O)NCC)s1 [Compound 59] | 334 nM | 19400 nM | 467 nM | 382 nM | – | – | – | – | – |
| Cc1nc2ccc(OC(F)(F)F)cc2n1-c1ccc(C(=O)NC2CC2)s1 [Compound 58] | 36 nM | > 30000 nM | 16 nM | 9 nM | – | – | – | – | – |
| Cc1nc2cc(F)ccc2n1-c1ccc(C(=O)NC2CC2)s1 [Compound 43] | 104 nM | 20300 nM | – | – | 36 nM | 39 nM | – | – | – |
| CCNC(=O)c1ccc(-n2cc(-c3ccccc3)nc2C)s1 [Compound 75] | 416 nM | > 30000 nM | 283 nM | 278 nM | – | – | – | – | – |
| CCNC(=O)c1ccc(-n2c(C)nc3cc(F)ccc32)s1 [Compound 53] | 164 nM | > 30000 nM | 106 nM | 66 nM | – | – | – | – | – |
| COc1ccc2c(c1)nc(C)n2-c1ccc(C(=O)NC2CC2)s1 [Compound 39] | 212 nM | 24600 nM | 247 nM | 180 nM | – | – | – | – | – |
| Cc1nc2cc(OC(F)(F)F)ccc2n1-c1ccc(C(=O)NC2CC2)s1 [Compound 57] | 64 nM | > 30000 nM | 60 nM | 33 nM | – | – | – | – | – |
| O=C(NC1CC1)c1ccc(-n2cnc3ccccc32)s1 [Compound 23] | 56 nM | > 30000 nM | 88 nM | 79 nM | – | – | – | – | – |
| CC(C)NC(=O)c1ccc(-n2cnc3ccccc32)s1 [Compound 36] | 684 nM | > 30000 nM | 812 nM | 579 nM | – | – | – | – | – |
| CCCCC(=O)c1ccc(-n2cnc3ccccc32)s1 [Compound 84, 1-[5-(1H-benzimidazol-1-yl)-2-thienyl]pentan-1-one] | > 30000 nM | > 30000 nM | 20000 nM | > 40000 nM | – | – | – | – | – |
| CCNC(=O)c1ccc(-n2cnc3ccccc32)s1 [Compound 25] | 145 nM | > 30000 nM | 154 nM | 102 nM | – | – | – | – | – |
| Cc1cccc2c1nc(C)n2-c1ccc(C(=O)NC2CC2)s1 [Compound 65] | 42 nM | > 30000 nM | 13 nM | 9 nM | – | – | – | – | – |

| Compound | IC50 (pfDHODH; [1]) | IC50 (hsDHODH) | EC50 (P. falciparum Dd2; [2]) | EC50 (P. falciparum 3D7; [3]) | EC50 (P. falciparum Dd2; Table 2b, read-out: Dd2 EC50) | EC50 (P. falciparum 3D7; Table 2b, read-out: 3D7 EC50) | IC50 (pfDHODH; pfDHODH IC50, Table 2b) | EC50 (P. falciparum Dd2; Plasmodium falciparum, DD2, read-out: Dd2 EC50, Table 2b) | EC50 (P. falciparum 3D7; Plasmodium falciparum, 3D7, read-out: 3D7 EC50, Table 2b) |
| --- | --- | --- | --- | --- | --- | --- | --- | --- | --- |
| CCCNC(=O)c1ccc(-n2c(C)nc3cc(Cl)ccc32)s1 [Compound 51] | 239 nM | > 30000 nM | 314 nM | 158 nM | – | – | – | – | – |
| Cc1nc(-c2ccc(F)cc2)cn1-c1ccc(C(=O)NC2CC2)s1 [Compound 76] | 240 nM | > 30000 nM | 217 nM | 226 nM | – | – | – | – | – |
| Cc1nc2cc(F)ccc2n1-c1ccc(C(=O)NC2CC2)s1 [Compound 42] | 88 nM | > 30000 nM | – | – | 150 nM | 104 nM | – | – | – |
| CCCc1nc2ccccc2n1-c1ccc(C(=O)NC2CC2)s1 [Compound 67] | 180 nM | 25600 nM | 629 nM | 389 nM | – | – | – | – | – |
| Cc1nc2cc(Cl)ccc2n1-c1ccc(C(=O)NC2CC2)s1 [Compound 40] | – | > 30000 nM | – | – | – | – | 58 nM | 120 nM | 88 nM |
| Cc1ccc2c(c1)nc(C)n2-c1ccc(C(=O)NC2CC2)s1 [Compound 44] | 56 nM | > 30000 nM | 48 nM | 34 nM | – | – | – | – | – |
| Cc1ccc2c(c1)ncn2-c1ccc(C(=O)NC2CC2)s1 [Compound 60] | 38 nM | 24600 nM | 21 nM | 20 nM | – | – | – | – | – |
| O=C(NC1CCC1)c1ccc(-n2cnc3ccccc32)s1 [Compound 38] | 418 nM | > 30000 nM | 442 nM | 408 nM | – | – | – | – | – |
| CCNC(=O)c1ccc(-n2c(CC)nc3cc(F)ccc32)s1 [Compound 69] | 178 nM | > 30000 nM | 361 nM | 226 nM | – | – | – | – | – |
| CCNC(=O)c1ccc(-n2c(C)nc3ccccc32)s1 [Compound 33] | 191 nM | > 30000 nM | – | – | 223 nM | 113 nM | – | – | – |
| CNC(=O)c1ccc(-n2cnc3ccccc32)s1 [Compound 24] | 1080 nM | > 30000 nM | 422 nM | 276 nM | – | – | – | – | – |
| Cc1nc2ccccc2n1-c1ccc(C(=O)NC2CC2)s1 [Compound 31] | 99 nM | > 30000 nM | 106 nM | 66 nM | – | – | – | – | – |
| CCNC(=O)c1ccc(-n2c(C)nc3cc(C)ccc32)s1 [Compound 62] | 112 nM | > 30000 nM | 87 nM | 89 nM | – | – | – | – | – |
| Cc1nc(-c2ccccc2)cn1-c1ccc(C(=O)NC2CC2)s1 [Compound 74] | 220 nM | > 30000 nM | 206 nM | 124 nM | – | – | – | – | – |
| CCCNC(=O)c1ccc(-n2cnc3cc(Cl)ccc32)s1 [Compound 56] | 324 nM | > 30000 nM | – | 203 nM | – | – | – | – | – |
| CCNC(=O)c1ccc(-n2c(CC)nc3ccccc32)s1 [Compound 63] | 137 nM | > 30000 nM | 146 nM | 141 nM | – | – | – | – | – |
| CCc1nc2ccccc2n1-c1ccc(C(=O)NC2CC2)s1 [Compound 49] | 113 nM | > 30000 nM | 185 nM | 125 nM | – | – | – | – | – |
| Cc1nc2ccccc2n1-c1ccc(C(=O)NC2CC2)s1 [Compound 32] | 74 nM | > 30000 nM | – | – | 114 nM | 105 nM | – | – | – |
| CCNC(=O)c1ccc(-n2c(C)nc3cc(Cl)ccc32)s1 [Compound 52] | 94 nM | > 30000 nM | 104 nM | 53 nM | – | – | – | – | – |
| CCCNC(=O)c1ccc(-n2c(C)nc3cc(F)ccc32)s1 [Compound 50] | 499 nM | > 30000 nM | 538 nM | 255 nM | – | – | – | – | – |
